27 compounds from PubChem BioAssay AID624167 (Sanford-Burnham Center for Chemical Genomics, 2012) can be followed below.

Calls of active or inactive are those of the source.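 The calls were made as follows: active = mean IC50 for reducing PEG3 promoter reporter signal at or below a set limit, with IC50 above the limit in both counter screens; inactive = the rest, including counter screen hits.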

Assay in all cases: Peg3 promoter luciferase inhibitors, potency, dose response, cell-based, HeLa, CREF/GAPDH counter-screen panel (AID 624167)
A general note: Counterscreens check selectivity or assay interference.

Assay [1] addresses PEG-3 (UniProt Q6IN02). As to conditions: HeLa PEG-Prom luciferase reporter, overnight, CREF/GAPDH counter-screens, mean of runs. Background: Reporter assays use an easily measured gene product as a stand-in for the process of interest.
The subject of assay [2] is PEG-3. As to conditions: HeLa PEG-Prom luciferase reporter, overnight, CREF/GAPDH counter-screens.
For a further assay, the system named is Rat fibroblasts (CREF). As to conditions: CREF/GAPDH counter-screens.
[3] abbreviates: run 1, dose range 1, individual replicate IC50 per panel.
[4] abbreviates: run 2, dose range 1, individual replicate IC50 per panel.

Chain of PEG-3 (UniProt Q6IN02) (Q6IN02 whole entry, looked up): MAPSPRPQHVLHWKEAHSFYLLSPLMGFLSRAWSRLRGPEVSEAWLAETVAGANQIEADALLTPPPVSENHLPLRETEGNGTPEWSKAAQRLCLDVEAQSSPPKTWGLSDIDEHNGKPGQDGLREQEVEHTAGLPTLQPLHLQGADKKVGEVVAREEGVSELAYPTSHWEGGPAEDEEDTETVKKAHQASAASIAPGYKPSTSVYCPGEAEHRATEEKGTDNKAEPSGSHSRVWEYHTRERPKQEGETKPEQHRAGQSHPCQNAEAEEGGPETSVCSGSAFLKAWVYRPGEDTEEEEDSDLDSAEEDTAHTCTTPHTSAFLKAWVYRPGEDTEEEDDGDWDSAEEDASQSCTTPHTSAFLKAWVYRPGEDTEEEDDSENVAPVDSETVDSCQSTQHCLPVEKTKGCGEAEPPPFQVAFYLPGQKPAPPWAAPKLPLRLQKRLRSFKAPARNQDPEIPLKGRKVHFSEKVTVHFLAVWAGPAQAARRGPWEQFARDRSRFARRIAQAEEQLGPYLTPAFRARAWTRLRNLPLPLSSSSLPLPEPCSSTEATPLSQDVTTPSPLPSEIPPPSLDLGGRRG

Turning to `O=C(Nc1nc2cc3c(cc2s1)OCCO3)c1ccco1`, the 50% inhibitory concentration (IC50) (commonly the concentration needed to halve the response being measured) was 1980 nM at PEG-3 [1]; 1750 nM in the assay on PEG-3 [2] (setting [3]); 2220 nM in the assay on PEG-3 [2] (setting [4]); 1480 nM in the assay on Rat fibroblasts (CREF) (mean of runs); 766 nM in the assay with Rat fibroblasts (CREF) (setting [3]); 2200 nM in the assay with Rat fibroblasts (CREF) (setting [4]).
On to `Cc1ccccc1-c1nc(-c2ccccn2)no1`, for which the half-maximal inhibitory concentration (IC50) is 3900 nM on PEG-3 [1]; 2980 nM in the assay on PEG-3 [2] (setting [3]); 4810 nM in the assay on PEG-3 [2] (setting [4]); 1330 nM in the assay with Rat fibroblasts (CREF) (mean of runs); 1080 nM in the assay with Rat fibroblasts (CREF) (setting [3]); 1570 nM in the assay on Rat fibroblasts (CREF) (setting [4]).
For `COc1ccc(C(=O)NNC(=O)c2ccccn2)cc1`, the half-maximal inhibitory concentration (IC50) at PEG-3 [1] is 1760 nM; with PEG-3 [2] (setting [3]) it was 2680 nM; in the assay on PEG-3 [2] (setting [4]) it was 849 nM; in the assay with Rat fibroblasts (CREF) (mean of runs), 1650 nM; in the assay with Rat fibroblasts (CREF) (setting [3]), 1210 nM; in the assay with Rat fibroblasts (CREF) (setting [4]), 2090 nM.
In the case of `OCC1OC(n2ccc3c(NO)ncnc32)C(O)C1O` (stereo not drawn), the IC50 at PEG-3 [1] was 378 nM; with PEG-3 [2] (setting [3]) it was 433 nM; with PEG-3 [2] (setting [4]) it was 323 nM; in the assay with Rat fibroblasts (CREF) (mean of runs), 3210 nM; with Rat fibroblasts (CREF) (setting [3]), 2780 nM; with Rat fibroblasts (CREF) (setting [4]) it was 3640 nM.
For `CC(=O)CSc1ccc(-c2nc3cc(C)c(C)cc3[nH]2)cn1`, the IC50 is 2020 nM on PEG-3 [1]; 2210 nM with PEG-3 [2] (setting [3]); 1840 nM in the assay on PEG-3 [2] (setting [4]); 2080 nM in the assay with Rat fibroblasts (CREF) (mean of runs); 1790 nM with Rat fibroblasts (CREF) (setting [3]); 2360 nM in the assay with Rat fibroblasts (CREF) (setting [4]).
Take `COc1ccccc1C(=O)Nc1nc2ccccc2s1`: the IC50 was 574 nM on PEG-3 [1]; 515 nM in the assay with PEG-3 [2] (setting [3]); 633 nM in the assay on PEG-3 [2] (setting [4]); 489 nM with Rat fibroblasts (CREF) (mean of runs); 348 nM in the assay with Rat fibroblasts (CREF) (setting [3]); 631 nM in the assay with Rat fibroblasts (CREF) (setting [4]).
Consider `COc1cc(/C=N/O)ccc1OCc1ccc(C(=O)O)cc1`, for which the half-maximal inhibitory concentration (IC50) was 1610 nM on PEG-3 [1]; 1710 nM with PEG-3 [2] (setting [3]); 1510 nM in the assay on PEG-3 [2] (setting [4]); 9430 nM in the assay on Rat fibroblasts (CREF) (mean of runs); 10100 nM with Rat fibroblasts (CREF) (setting [3]); 8800 nM in the assay with Rat fibroblasts (CREF) (setting [4]).
Consider `O=C1c2cccc3cc([N+](=O)[O-])cc(c23)C(=O)N1CCN1CCCC1`, for which the 50% inhibitory concentration (IC50) on PEG-3 [1] is 5570 nM; with PEG-3 [2] (setting [3]), 6200 nM; in the assay on PEG-3 [2] (setting [4]), 4940 nM; with Rat fibroblasts (CREF) (mean of runs), 4660 nM; in the assay on Rat fibroblasts (CREF) (setting [3]), 4170 nM; with Rat fibroblasts (CREF) (setting [4]) it was 5150 nM.
Regarding `O=c1c(Cl)c(N2CCCCC2)cnn1-c1nc2ccccc2[nH]1`, the IC50 on PEG-3 [1] is 3250 nM; with PEG-3 [2] (setting [3]), 3020 nM; in the assay on PEG-3 [2] (setting [4]), 3490 nM; with Rat fibroblasts (CREF) (mean of runs), 714 nM; in the assay on Rat fibroblasts (CREF) (setting [3]), 810 nM; in the assay with Rat fibroblasts (CREF) (setting [4]), 618 nM.
Regarding `C/C(=N\NC(=O)c1n[nH]c2c1CCC2)c1cccs1`, the IC50 on PEG-3 [1] was 1750 nM; with PEG-3 [2] (setting [3]), 1170 nM; in the assay with PEG-3 [2] (setting [4]) it was 2330 nM; in the assay with Rat fibroblasts (CREF) (mean of runs), 2490 nM; in the assay with Rat fibroblasts (CREF) (setting [3]), 2490 nM; in the assay with Rat fibroblasts (CREF) (setting [4]), 2490 nM.
`Cc1cc(NC(c2cccnc2)c2ccc3cccnc3c2O)no1` (stereo not drawn): the IC50 on PEG-3 [1] is 6130 nM; with PEG-3 [2] (setting [3]), 7220 nM; in the assay on PEG-3 [2] (setting [4]) it was 5040 nM; in the assay on Rat fibroblasts (CREF) (mean of runs), 5720 nM; in the assay with Rat fibroblasts (CREF) (setting [3]), 5650 nM; with Rat fibroblasts (CREF) (setting [4]) it was 5790 nM.
`CCN1C=CC(=C2C(=O)c3ccccc3C2=O)C=C1`: the concentration for half-maximal inhibition (IC50) on PEG-3 [1] was 957 nM; in the assay on PEG-3 [2] (setting [3]), 834 nM; in the assay on PEG-3 [2] (setting [4]) it was 1080 nM; with Rat fibroblasts (CREF) (mean of runs) it was 850 nM; in the assay with Rat fibroblasts (CREF) (setting [3]), 947 nM; in the assay with Rat fibroblasts (CREF) (setting [4]) it was 753 nM.
Turning to `Cc1cccc(C)c1NC(=O)c1nc(S(=O)(=O)Cc2ccccc2)ncc1Cl`, the IC50 was 8690 nM at PEG-3 [1]; 10100 nM in the assay on PEG-3 [2] (setting [3]); 7290 nM in the assay on PEG-3 [2] (setting [4]); 14600 nM in the assay with Rat fibroblasts (CREF) (mean of runs); 13000 nM in the assay with Rat fibroblasts (CREF) (setting [3]); 16100 nM in the assay with Rat fibroblasts (CREF) (setting [4]).
With `Cc1cc(N2CCN(C)CC2)ccc1NC(=O)c1c2c(nc3ccccc13)CCN(Cc1ccccc1)C2`, the IC50 on PEG-3 [1] is 8920 nM; with PEG-3 [2] (setting [3]), 5600 nM; with PEG-3 [2] (setting [4]), 12200 nM; with Rat fibroblasts (CREF) (mean of runs), 3010 nM; in the assay with Rat fibroblasts (CREF) (setting [3]), 2440 nM; with Rat fibroblasts (CREF) (setting [4]), 3590 nM.
In the case of `Cc1ccccc1OCC(O)CNC1CCC(NCC(O)COc2ccccc2C)CC1` (stereo not drawn), the IC50 at PEG-3 [1] was 7150 nM; in the assay on PEG-3 [2] (setting [3]), 9800 nM; with PEG-3 [2] (setting [4]) it was 4490 nM; in the assay with Rat fibroblasts (CREF) (mean of runs), 10800 nM; with Rat fibroblasts (CREF) (setting [3]) it was 8940 nM; in the assay with Rat fibroblasts (CREF) (setting [4]) it was 12600 nM.
For `O=C(NCCc1ccccc1)c1ccc2c(c1)OCCCO2`, the IC50 is 557 nM at PEG-3 [1]; 466 nM in the assay on PEG-3 [2] (setting [3]); 647 nM with PEG-3 [2] (setting [4]); 589 nM with Rat fibroblasts (CREF) (mean of runs); 374 nM with Rat fibroblasts (CREF) (setting [3]); 803 nM in the assay on Rat fibroblasts (CREF) (setting [4]).
As to `CC(=O)N1CCCC(c2cc(C(=O)Nc3ccccc3)no2)C1` (stereo not drawn), the half-inhibitory concentration (IC50) is 6410 nM at PEG-3 [1]; 4870 nM in the assay on PEG-3 [2] (setting [3]); 7940 nM with PEG-3 [2] (setting [4]); 9510 nM with Rat fibroblasts (CREF) (mean of runs); 9260 nM with Rat fibroblasts (CREF) (setting [3]); 9760 nM in the assay with Rat fibroblasts (CREF) (setting [4]).
Take `Cc1nc(SCC(=O)Nc2nc3ccccc3s2)c(C#N)c(C)c1C`: the IC50 at PEG-3 [1] was 4130 nM; in the assay on PEG-3 [2] (setting [3]), 8050 nM; in the assay on PEG-3 [2] (setting [4]), less than 200 nM; in the assay with Rat fibroblasts (CREF) (mean of runs) it was 7900 nM; in the assay with Rat fibroblasts (CREF) (setting [3]) it was 232 nM; in the assay with Rat fibroblasts (CREF) (setting [4]), 15600 nM.
Consider `NC(Cc1ccc(F)cc1)c1csc(Nc2cc(Oc3ccccc3)ncn2)n1` (stereo not drawn), for which the IC50 at PEG-3 [1] is 10200 nM; in the assay with PEG-3 [2] (setting [3]) it was 13200 nM; with PEG-3 [2] (setting [4]), 7160 nM; in the assay on Rat fibroblasts (CREF) (mean of runs), 17200 nM; in the assay with Rat fibroblasts (CREF) (setting [3]) it was 21300 nM; in the assay on Rat fibroblasts (CREF) (setting [4]) it was 13100 nM.
For the compound `COc1ccc(/C=N/Nc2nncc3ccccc23)cc1`, the 50% inhibitory concentration (IC50) on PEG-3 [1] is 6520 nM; in the assay with PEG-3 [2] (setting [3]), 4620 nM; in the assay on PEG-3 [2] (setting [4]) it was 8430 nM; in the assay on Rat fibroblasts (CREF) (mean of runs), 835 nM; in the assay with Rat fibroblasts (CREF) (setting [3]), 957 nM; with Rat fibroblasts (CREF) (setting [4]), 712 nM.
Turning to `COc1ccc(OCc2cccc(C(=O)O)c2)cc1`, the half-inhibitory concentration (IC50) on PEG-3 [1] was 327 nM; in the assay on PEG-3 [2] (setting [3]), 263 nM; in the assay with PEG-3 [2] (setting [4]) it was 390 nM; with Rat fibroblasts (CREF) (mean of runs), 10500 nM; with Rat fibroblasts (CREF) (setting [3]), 10200 nM; in the assay with Rat fibroblasts (CREF) (setting [4]), 10800 nM.
`O=C1CCCCC1Sc1nnc(-c2ccc3c(c2)OCO3)o1` (stereo not drawn): the IC50 is 1700 nM on PEG-3 [1]; 1690 nM in the assay on PEG-3 [2] (setting [3]); 1710 nM in the assay on PEG-3 [2] (setting [4]); 7830 nM in the assay on Rat fibroblasts (CREF) (mean of runs); 8190 nM in the assay with Rat fibroblasts (CREF) (setting [3]); 7460 nM with Rat fibroblasts (CREF) (setting [4]).
In the case of `NC1=C(Br)C(=O)c2ncccc2C1=O`, the 50% inhibitory concentration (IC50) on PEG-3 [1] was 3100 nM; with PEG-3 [2] (setting [3]) it was 3310 nM; in the assay on PEG-3 [2] (setting [4]), 2900 nM; in the assay with Rat fibroblasts (CREF) (mean of runs) it was 2200 nM; with Rat fibroblasts (CREF) (setting [3]) it was 2190 nM; in the assay with Rat fibroblasts (CREF) (setting [4]), 2200 nM.
`COc1ccc(C(=O)O/N=C(\N)c2ccccn2)cc1`: the IC50 was 2020 nM at PEG-3 [1]; 3110 nM with PEG-3 [2] (setting [3]); 926 nM in the assay with PEG-3 [2] (setting [4]); 1620 nM in the assay on Rat fibroblasts (CREF) (mean of runs); 1320 nM in the assay with Rat fibroblasts (CREF) (setting [3]); 1930 nM in the assay with Rat fibroblasts (CREF) (setting [4]).
`COc1ccc2sc(-c3ccc(S(C)(=O)=O)cc3)c(C#Cc3cncn3C)c2c1`: the IC50 result at PEG-3 [1] was “inactive”. Besides, the IC50 in the assay on PEG-3 [2] (setting [3]) was 21200 nM; with PEG-3 [2] (setting [4]), greater than 100000 nM.
With `CCOc1cc(CNCCO)cc(Br)c1OCc1ccccc1Cl`, the IC50 result at PEG-3 [1] was “inactive”. Also, the half-inhibitory concentration (IC50) came out at 41200 nM in the assay on PEG-3 [2] (setting [3]) and 73400 nM in the assay with PEG-3 [2] (setting [4]).
For `Cc1cc(C)c2nc(N(CCCN(C)C)C(=O)c3ccc(S(=O)(=O)N4CCCCCC4)cc3)sc2c1`, the half-inhibitory concentration (IC50) at PEG-3 [1] was 20000 nM; in the assay on PEG-3 [2] (setting [3]), 24300 nM; in the assay on PEG-3 [2] (setting [4]), 15600 nM.
